ChEMBL document CHEMBL5465560, “Selectivity Literature for EUbOPEN Chemogenomic Library” (2024)

Assays:
[1] = biological target: Serine/threonine-protein kinase MARK2 (Homo sapiens) (UniProt Q7KZI7); experiment: Selectivity interaction (Kinase panel (KiNativ target engagement assay in Jurkat cells)) EUB0001635a MARK2; format: cell-based; conditions: Selectivity number of off-targets 0.0, Selectivity number of targets 233.0, Source Knowledge https://www.sciencedirect.com/science/article/pii/S2451945619300674?via%3Dihub, at 1 µM
[2] = biological target: T1, cGMP-dependent protein kinase 2 (Homo sapiens) (UniProt Q13237); experiment: Selectivity interaction (KinomeScan (DiscoverX)) EUB0000595a PRKG2; conditions: at 10 µM
T1 sequence (whole entry): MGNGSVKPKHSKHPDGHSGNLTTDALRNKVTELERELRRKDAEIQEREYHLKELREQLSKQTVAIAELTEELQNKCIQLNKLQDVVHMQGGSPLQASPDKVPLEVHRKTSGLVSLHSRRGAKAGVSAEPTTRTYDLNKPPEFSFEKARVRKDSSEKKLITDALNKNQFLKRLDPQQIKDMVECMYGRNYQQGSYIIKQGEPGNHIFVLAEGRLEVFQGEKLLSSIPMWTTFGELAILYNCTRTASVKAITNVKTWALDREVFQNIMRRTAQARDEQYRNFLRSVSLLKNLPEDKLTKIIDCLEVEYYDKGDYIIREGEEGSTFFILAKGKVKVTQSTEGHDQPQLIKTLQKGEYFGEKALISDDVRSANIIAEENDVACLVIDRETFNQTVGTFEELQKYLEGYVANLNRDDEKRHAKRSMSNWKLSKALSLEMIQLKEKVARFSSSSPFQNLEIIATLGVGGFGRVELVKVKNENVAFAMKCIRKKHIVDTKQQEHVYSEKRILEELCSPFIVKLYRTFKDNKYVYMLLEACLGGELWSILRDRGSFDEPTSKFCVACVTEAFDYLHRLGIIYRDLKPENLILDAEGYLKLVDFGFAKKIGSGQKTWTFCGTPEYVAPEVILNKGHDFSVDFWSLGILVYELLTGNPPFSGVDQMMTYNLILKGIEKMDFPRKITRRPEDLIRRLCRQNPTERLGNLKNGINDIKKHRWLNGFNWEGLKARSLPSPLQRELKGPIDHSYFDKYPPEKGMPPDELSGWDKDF

Aurora kinase B = Aurora kinase B (Homo sapiens, UniProt Q96GD4); experiment: Selectivity interaction (KinomeScan (DiscoverX)) EUB0000595a AURKB; conditions: at 10 µM
[3] = test system: Hepatocyte growth factor receptor (Homo sapiens), P08581 [D1228H]; experiment: Selectivity interaction (LanthaScreen Eu Kinase Binding Assay) EUB0001632a MET; conditions: at 10 µM
[4] = biological target: Vascular endothelial growth factor receptor 1 (Homo sapiens) (UniProt P17948); experiment: Selectivity interaction (Kinase screening (Nanosyn)) EUB0000604a FLT1
[5] = biological target: T2, Serine/threonine-protein kinase DCLK3 (Homo sapiens) (UniProt Q9C098); experiment: Selectivity interaction (KinomeScan (DiscoverX)) EUB0001049a DCLK3; conditions: at 1 µM
T2 sequence (whole entry): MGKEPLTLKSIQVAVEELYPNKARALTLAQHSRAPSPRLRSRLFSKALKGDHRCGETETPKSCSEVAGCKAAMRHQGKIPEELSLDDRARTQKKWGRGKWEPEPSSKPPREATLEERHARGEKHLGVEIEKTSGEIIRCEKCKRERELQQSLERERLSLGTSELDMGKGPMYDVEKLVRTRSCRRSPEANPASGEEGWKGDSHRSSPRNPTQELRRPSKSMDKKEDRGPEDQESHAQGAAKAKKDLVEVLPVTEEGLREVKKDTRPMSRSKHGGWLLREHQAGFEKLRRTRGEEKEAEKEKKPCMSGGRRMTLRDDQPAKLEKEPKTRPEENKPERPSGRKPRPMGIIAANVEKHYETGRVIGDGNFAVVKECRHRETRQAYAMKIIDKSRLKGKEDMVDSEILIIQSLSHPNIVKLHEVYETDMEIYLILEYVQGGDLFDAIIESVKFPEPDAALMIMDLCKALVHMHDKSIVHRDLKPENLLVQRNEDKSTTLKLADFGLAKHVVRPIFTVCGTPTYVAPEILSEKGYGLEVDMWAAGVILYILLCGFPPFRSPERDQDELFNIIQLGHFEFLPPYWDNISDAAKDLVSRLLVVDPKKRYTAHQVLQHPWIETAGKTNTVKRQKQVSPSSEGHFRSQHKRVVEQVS

[6] = biological target: Dual specificity mitogen-activated protein kinase kinase 2 (Homo sapiens) (UniProt P36507); experiment: Selectivity interaction (KinomeScan (DiscoverX)) EUB0001619a MAP2K2; conditions: at 1 µM
[7] = biological target: Serine/threonine-protein kinase Nek6 (Homo sapiens) (UniProt Q9HC98); experiment: Selectivity interaction (SelectScreen profiling (Invitrogen)) EUB0000607a NEK6; conditions: at 2 µM
[8] = biological target: Ribosomal protein S6 kinase alpha-6 (Homo sapiens, UniProt Q9UK32); experiment: Selectivity interaction (KinomeScan (DiscoverX)) EUB0000618a RPS6KA6; conditions: at 10 µM
Ribosomal protein S6 kinase alpha-6, sequence (Q9UK32 whole entry): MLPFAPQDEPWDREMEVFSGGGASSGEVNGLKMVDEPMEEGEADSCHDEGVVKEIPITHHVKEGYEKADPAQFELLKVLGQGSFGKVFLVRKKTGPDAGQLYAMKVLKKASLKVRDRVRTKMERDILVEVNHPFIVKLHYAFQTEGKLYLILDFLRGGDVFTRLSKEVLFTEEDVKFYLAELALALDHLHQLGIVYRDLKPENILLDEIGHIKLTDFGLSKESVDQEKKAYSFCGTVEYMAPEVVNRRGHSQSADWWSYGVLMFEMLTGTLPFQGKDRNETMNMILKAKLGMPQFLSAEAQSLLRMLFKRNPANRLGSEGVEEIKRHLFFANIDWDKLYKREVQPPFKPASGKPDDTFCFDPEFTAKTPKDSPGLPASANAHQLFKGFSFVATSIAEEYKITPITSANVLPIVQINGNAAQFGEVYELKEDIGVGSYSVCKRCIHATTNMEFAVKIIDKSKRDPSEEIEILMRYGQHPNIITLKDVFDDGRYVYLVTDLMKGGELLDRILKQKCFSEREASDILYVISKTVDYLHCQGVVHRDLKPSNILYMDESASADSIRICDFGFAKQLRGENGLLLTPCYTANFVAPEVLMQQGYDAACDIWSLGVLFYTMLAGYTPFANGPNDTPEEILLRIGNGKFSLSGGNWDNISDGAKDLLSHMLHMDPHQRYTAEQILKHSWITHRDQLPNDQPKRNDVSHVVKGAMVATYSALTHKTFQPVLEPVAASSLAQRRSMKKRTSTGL

Vascular endothelial growth factor receptor 1 (Homo sapiens), sequence (P17948 whole entry): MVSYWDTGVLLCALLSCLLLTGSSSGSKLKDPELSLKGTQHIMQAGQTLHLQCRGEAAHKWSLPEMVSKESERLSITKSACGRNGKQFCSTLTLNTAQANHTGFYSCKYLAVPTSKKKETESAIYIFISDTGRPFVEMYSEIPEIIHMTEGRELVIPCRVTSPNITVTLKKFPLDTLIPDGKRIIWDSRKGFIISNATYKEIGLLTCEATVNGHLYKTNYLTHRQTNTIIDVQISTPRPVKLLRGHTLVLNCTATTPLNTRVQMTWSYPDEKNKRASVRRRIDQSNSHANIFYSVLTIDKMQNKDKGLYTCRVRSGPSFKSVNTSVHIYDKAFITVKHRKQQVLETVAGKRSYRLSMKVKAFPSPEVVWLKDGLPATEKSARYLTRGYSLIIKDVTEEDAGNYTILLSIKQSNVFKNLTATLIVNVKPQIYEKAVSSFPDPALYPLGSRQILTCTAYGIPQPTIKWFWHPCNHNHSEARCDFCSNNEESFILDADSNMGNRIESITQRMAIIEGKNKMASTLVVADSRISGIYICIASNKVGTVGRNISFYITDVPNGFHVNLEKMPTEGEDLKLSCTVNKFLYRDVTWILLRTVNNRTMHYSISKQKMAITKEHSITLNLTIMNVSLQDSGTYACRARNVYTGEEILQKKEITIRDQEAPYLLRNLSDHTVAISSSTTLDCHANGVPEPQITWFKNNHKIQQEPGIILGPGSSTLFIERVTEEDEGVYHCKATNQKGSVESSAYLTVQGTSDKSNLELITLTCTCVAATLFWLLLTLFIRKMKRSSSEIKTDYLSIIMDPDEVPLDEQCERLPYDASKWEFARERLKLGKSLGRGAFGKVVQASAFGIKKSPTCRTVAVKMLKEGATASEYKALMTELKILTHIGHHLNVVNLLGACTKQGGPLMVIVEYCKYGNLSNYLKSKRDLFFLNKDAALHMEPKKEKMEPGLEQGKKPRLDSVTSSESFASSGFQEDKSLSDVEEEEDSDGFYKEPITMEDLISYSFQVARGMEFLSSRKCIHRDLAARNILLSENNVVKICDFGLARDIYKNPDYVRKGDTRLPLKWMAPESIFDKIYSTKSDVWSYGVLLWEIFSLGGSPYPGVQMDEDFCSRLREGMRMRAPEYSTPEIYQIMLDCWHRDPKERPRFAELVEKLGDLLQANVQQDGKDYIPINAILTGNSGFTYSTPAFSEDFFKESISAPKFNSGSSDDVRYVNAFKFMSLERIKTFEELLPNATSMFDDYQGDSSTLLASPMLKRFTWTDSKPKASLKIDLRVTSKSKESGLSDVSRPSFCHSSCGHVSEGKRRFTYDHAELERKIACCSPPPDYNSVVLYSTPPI
Aurora kinase B, sequence (Q96GD4 whole entry): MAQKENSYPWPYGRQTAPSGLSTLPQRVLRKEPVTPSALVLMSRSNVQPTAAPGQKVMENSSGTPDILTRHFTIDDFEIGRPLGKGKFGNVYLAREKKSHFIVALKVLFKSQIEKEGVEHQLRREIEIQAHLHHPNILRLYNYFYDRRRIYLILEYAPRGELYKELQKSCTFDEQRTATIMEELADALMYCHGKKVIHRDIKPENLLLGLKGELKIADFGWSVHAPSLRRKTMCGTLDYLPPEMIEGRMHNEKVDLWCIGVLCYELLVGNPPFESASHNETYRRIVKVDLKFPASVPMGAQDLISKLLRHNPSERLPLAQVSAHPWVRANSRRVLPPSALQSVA
Serine/threonine-protein kinase Nek6 (Homo sapiens), sequence (Q9HC98 whole entry): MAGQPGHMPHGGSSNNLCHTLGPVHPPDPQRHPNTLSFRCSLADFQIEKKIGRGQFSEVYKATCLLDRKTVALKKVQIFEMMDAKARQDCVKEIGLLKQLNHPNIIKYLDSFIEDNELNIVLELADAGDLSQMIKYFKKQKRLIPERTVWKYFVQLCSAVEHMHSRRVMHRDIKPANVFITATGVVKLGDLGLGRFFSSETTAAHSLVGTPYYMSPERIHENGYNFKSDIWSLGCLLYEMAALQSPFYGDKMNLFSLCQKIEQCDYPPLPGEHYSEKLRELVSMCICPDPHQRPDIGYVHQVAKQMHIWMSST
Dual specificity mitogen-activated protein kinase kinase 2 (Homo sapiens), sequence (P36507 whole entry): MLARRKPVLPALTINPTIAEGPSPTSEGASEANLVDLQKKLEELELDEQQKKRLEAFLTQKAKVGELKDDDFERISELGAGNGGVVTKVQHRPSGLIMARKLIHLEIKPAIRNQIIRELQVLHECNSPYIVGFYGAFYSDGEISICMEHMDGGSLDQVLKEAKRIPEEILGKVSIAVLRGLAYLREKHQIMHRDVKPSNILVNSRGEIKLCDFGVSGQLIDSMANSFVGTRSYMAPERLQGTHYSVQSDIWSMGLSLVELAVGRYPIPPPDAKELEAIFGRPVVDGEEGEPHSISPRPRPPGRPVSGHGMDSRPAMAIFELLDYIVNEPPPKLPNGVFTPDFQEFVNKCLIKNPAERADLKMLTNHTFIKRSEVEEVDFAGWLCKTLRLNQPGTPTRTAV
Hepatocyte growth factor receptor (Homo sapiens), P08581 [D1228H], sequence (P08581 whole entry D1228H): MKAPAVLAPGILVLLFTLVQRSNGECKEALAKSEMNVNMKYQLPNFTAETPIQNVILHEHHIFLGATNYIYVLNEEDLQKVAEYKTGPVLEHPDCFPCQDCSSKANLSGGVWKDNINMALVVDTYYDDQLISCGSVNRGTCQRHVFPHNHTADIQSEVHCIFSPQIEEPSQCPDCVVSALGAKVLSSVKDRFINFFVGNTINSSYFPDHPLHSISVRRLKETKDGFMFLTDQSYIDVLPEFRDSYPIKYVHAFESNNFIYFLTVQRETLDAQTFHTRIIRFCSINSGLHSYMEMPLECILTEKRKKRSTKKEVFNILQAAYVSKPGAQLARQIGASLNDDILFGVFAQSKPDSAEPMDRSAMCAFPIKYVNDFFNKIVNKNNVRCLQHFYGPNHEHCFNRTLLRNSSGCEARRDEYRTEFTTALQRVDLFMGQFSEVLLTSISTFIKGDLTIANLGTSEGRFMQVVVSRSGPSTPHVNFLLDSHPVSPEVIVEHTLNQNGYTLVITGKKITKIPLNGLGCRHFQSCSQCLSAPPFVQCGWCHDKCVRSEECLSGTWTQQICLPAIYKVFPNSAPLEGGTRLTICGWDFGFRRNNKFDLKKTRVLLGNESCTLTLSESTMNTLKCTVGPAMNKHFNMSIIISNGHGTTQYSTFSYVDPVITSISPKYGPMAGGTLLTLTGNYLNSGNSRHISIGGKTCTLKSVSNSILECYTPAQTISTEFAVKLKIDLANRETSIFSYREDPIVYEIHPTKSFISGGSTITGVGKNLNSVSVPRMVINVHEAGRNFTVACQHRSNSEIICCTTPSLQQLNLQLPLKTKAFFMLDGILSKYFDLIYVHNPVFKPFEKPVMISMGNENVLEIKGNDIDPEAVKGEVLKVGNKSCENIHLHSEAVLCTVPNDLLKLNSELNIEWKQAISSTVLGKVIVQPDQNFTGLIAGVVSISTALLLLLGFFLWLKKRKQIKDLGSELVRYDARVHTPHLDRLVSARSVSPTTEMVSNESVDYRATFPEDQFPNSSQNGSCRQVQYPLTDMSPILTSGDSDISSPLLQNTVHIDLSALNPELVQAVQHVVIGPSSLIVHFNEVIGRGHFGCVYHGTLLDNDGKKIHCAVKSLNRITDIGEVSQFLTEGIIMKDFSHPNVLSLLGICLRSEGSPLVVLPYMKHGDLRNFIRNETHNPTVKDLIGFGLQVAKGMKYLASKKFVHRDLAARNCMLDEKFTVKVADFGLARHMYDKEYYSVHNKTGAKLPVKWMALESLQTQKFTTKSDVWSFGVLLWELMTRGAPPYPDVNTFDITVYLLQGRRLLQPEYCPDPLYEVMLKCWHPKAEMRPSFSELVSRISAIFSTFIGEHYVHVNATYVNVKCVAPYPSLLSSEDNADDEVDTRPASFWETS

For C=CC(=O)Nc1ccc(C(=O)Nc2[nH]nc3c2CN(C(=O)N[C@H](CN(C)C)c2ccccc2)C3(C)C)cc1, the % of engagement [1] was 6.7%.

Compound COCC(=O)NC/C=C/c1ccc2ncnc(Nc3ccc(Oc4ccc(C)nc4)c(C)c3)c2c1 [CP-724714] has a % of control [2] of 100% and a % of control (Aurora kinase B) of 100%.

Compound Cn1cc(-n2cnc3c(NCc4nc5cc(Cl)c(Cl)cc5[nH]4)nc(N4CCOCC4)nc32)cn1 has a % of inhibition [3] of -208%.

Compound Cc1cnc(Nc2ccc(F)cc2Cl)nc1-c1c[nH]c(C(=O)N[C@H](CO)c2cccc(Cl)c2)c1 has a % of inhibition [4] of 0%.

Compound COc1cc(Nc2nc(C)cc(-c3cnn4nc(OC)ccc34)n2)cc(C(F)(F)F)c1 has a % of control [5] of 100%.

Compound N#Cc1cccc(-c2c[nH]c3ncnc(N4CCOCC4)c23)c1 has a % of control [6] of 19%.

In the case of CNC(=O)Nc1ccc(-c2nc(N3CC4CCC(C3)O4)c3cnn(C4CCC5(CC4)OCCO5)c3n2)cc1, the % of inhibition [7] is reported as 12%.

For O[C@H]1CC[C@H](Nc2ncc3nc(Nc4c(F)cc(F)cc4F)n([C@H]4CCOC4)c3n2)CC1, the % of control [8] was 13%.
